In paper PMC9927415, “Tyrosine Kinase Inhibitors Display Potent Activity against Cryptosporidium parvum” (Microbiology Spectrum, 2022):

Key:
Test in all cases: KINOMEscan competitive binding, whole panel
panel of 203 kinases [1] = target: T1, panel of 203 kinases (Homo sapiens, UniProt Q13188); details: 10 µM, n=1; kinase MST2; read-out: Percent inhibition MST2
T1 construct: purchased DiscoverX (KINOMEscan)
T1 sequence (Q13188 1-491): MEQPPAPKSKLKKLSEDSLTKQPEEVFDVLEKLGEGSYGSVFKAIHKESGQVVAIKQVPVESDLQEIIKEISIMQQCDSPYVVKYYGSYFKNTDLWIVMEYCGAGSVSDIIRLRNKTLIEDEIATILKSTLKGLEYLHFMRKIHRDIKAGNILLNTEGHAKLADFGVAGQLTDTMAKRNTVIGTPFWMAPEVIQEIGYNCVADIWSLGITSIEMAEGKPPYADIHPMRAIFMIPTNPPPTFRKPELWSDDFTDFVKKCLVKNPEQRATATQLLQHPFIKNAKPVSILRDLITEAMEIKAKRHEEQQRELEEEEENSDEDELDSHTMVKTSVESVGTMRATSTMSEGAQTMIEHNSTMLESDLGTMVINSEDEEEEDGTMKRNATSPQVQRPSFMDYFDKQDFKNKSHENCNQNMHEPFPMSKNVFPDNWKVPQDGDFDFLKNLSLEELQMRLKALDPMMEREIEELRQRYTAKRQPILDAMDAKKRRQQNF
How it was run: (§1)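 Read-out is the amount of kinase still captured on an immobilized ATP-site probe after exposure to test compound, expressed as percentage inhibition.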

panel of 203 kinases [2] = target: T2, panel of 203 kinases (Homo sapiens, UniProt Q13555); details: 10 µM, n=1; kinase CAMK2G; read-out: Percent inhibition CAMK2G
T2 construct: purchased DiscoverX (KINOMEscan)
How it was run: as §1

panel of 203 kinases [3] = target: T3, panel of 203 kinases (Homo sapiens, UniProt Q99683); details: 10 µM, n=1; kinase MAP3K5; read-out: Percent inhibition MAP3K5
T3 construct: purchased DiscoverX (KINOMEscan)
T3 sequence (Q99683 1-1374): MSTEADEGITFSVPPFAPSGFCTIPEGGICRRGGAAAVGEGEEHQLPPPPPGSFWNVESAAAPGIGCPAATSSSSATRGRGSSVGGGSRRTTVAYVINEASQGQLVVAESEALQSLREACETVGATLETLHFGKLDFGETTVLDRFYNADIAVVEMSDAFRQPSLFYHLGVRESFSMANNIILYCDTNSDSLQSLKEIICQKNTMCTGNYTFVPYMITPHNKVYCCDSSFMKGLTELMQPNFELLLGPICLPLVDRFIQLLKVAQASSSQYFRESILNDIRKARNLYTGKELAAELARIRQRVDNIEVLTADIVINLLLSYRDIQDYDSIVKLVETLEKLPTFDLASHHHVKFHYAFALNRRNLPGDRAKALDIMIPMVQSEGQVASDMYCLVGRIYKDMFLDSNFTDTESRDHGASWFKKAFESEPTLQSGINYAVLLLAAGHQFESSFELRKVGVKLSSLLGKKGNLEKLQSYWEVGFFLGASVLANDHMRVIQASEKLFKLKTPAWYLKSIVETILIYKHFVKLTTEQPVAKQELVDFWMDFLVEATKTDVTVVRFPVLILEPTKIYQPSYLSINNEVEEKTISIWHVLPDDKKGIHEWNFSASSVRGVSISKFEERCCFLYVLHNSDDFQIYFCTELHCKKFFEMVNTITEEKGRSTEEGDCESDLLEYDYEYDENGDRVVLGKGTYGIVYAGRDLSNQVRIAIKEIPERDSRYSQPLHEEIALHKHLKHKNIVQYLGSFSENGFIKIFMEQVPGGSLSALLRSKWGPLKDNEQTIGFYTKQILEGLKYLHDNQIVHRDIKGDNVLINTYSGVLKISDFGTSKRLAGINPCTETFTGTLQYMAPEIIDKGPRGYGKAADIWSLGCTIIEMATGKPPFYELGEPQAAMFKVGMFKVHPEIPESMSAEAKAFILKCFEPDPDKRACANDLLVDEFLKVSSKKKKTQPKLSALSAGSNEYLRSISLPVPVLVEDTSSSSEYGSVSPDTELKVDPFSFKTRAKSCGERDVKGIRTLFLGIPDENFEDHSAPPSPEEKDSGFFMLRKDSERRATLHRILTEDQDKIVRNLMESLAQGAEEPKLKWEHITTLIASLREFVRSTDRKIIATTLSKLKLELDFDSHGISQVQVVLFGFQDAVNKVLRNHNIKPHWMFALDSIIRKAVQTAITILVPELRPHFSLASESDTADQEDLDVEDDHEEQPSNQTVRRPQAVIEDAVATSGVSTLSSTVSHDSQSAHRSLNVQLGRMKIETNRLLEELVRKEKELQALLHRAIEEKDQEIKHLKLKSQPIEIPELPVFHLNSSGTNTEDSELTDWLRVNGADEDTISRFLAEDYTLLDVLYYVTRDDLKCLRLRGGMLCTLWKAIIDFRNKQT
How it was run: as §1

panel of 203 kinases [4] = target: T4, panel of 203 kinases (Homo sapiens, UniProt Q13043); details: 10 µM, n=1; kinase MST1; read-out: Percent inhibition MST1
T4 construct: purchased DiscoverX (KINOMEscan)
T4 sequence (Q13043 1-487): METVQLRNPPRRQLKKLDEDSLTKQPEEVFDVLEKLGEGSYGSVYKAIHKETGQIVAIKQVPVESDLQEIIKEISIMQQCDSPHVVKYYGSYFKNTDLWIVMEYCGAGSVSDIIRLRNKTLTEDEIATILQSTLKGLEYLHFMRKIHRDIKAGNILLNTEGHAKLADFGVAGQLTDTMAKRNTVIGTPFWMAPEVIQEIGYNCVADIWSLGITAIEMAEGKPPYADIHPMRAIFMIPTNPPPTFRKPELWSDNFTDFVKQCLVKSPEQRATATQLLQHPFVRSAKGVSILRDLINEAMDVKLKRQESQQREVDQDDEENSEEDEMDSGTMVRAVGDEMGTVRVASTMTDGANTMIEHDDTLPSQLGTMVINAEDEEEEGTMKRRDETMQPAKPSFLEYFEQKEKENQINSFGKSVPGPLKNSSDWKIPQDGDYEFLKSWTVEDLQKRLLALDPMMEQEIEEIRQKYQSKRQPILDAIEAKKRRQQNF
How it was run: as §1

panel of 203 kinases [5] = target: T5, panel of 203 kinases (Homo sapiens, UniProt P49761); details: 10 µM, n=1; kinase CLK3; read-out: Percent inhibition CLK3
T5 construct: purchased DiscoverX (KINOMEscan)
How it was run: as §1

panel of 203 kinases [6] = target: T6, panel of 203 kinases (Homo sapiens, UniProt Q8N5S9); details: 10 µM, n=1; kinase CAMKK1; read-out: Percent inhibition CAMKK1
T6 construct: purchased DiscoverX (KINOMEscan)
How it was run: as §1

panel of 203 kinases [7] = target: T7, panel of 203 kinases (Homo sapiens, UniProt O43293); details: 10 µM, n=1; kinase DAPK3; read-out: Percent inhibition DAPK3
T7 construct: purchased DiscoverX (KINOMEscan)
How it was run: as §1

T6 sequence (Q8N5S9 whole entry): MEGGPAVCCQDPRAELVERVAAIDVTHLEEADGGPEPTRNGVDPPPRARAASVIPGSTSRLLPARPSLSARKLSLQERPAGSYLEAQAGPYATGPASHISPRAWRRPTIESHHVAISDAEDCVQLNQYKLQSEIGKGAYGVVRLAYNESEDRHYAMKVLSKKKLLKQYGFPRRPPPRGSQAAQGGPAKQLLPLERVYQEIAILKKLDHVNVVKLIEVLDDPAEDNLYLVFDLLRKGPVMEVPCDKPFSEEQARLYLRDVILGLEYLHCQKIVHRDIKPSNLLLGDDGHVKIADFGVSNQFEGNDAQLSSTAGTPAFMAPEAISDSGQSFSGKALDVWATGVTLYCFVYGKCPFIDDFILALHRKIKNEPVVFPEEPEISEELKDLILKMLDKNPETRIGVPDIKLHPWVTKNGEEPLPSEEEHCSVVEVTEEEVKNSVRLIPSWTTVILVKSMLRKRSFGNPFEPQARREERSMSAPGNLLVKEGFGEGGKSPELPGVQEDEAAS
T2 sequence (Q13555 whole entry): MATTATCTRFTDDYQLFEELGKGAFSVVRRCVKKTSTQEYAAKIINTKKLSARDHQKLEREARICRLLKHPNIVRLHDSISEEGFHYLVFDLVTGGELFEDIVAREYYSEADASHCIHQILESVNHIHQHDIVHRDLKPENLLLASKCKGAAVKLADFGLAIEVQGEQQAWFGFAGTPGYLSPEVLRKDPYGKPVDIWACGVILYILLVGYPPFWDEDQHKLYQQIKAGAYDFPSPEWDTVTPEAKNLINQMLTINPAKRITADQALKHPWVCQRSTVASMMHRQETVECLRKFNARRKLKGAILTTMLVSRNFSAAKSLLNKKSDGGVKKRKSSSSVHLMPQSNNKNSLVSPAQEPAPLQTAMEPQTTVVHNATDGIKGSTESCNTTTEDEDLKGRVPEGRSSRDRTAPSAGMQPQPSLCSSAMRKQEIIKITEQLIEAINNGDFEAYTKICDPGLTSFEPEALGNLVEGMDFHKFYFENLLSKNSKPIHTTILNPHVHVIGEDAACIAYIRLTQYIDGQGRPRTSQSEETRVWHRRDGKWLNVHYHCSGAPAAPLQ
T7 sequence (O43293 whole entry): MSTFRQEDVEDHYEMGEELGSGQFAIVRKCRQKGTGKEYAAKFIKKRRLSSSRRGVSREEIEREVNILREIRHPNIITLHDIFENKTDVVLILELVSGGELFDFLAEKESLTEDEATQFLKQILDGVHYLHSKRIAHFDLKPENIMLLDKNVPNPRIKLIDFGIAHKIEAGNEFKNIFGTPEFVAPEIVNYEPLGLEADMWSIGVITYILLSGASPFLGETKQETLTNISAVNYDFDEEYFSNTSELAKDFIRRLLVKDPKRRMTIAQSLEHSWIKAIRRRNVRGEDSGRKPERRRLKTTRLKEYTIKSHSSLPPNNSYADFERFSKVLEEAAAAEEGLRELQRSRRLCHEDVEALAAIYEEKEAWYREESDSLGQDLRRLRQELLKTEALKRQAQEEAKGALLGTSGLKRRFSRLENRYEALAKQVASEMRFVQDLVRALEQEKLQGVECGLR
T5 sequence (P49761 whole entry): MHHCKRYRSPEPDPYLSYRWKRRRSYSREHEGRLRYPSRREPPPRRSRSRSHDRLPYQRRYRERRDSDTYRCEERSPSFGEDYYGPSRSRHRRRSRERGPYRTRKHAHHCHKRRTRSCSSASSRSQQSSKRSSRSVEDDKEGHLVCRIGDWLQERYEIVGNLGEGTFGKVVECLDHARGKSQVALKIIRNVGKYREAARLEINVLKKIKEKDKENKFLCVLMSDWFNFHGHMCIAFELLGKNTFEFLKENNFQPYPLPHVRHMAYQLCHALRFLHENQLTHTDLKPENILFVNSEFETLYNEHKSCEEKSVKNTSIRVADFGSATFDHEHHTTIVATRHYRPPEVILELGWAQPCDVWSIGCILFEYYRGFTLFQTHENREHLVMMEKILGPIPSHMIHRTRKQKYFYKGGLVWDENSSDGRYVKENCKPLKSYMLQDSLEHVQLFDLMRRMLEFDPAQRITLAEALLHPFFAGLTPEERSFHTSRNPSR

## CN1CCN(c2ccc(Nc3nccc(-c4cnn5ncccc45)n3)cc2C#N)CC1 [Compound 1]
Panel of 203 kinases [1]
  inhibition at 10 µM: 100%
Panel of 203 kinases [2]
  inhibition at 10 µM: 97.7%
Panel of 203 kinases [3]
  inhibition at 10 µM: 0%
Panel of 203 kinases [4]
  inhibition at 10 µM: 99.3%
Panel of 203 kinases [5]
  inhibition at 10 µM: 98.7%
Panel of 203 kinases [6]
  inhibition at 10 µM: 99.2%
Panel of 203 kinases [7]
  inhibition at 10 µM: 98.5%

## COc1ccc(Nc2nccc(-c3cnn4ncccc34)n2)cc1 [Compound 2]
Panel of 203 kinases [1]
  inhibition at 10 µM: 89.9%
Panel of 203 kinases [2]
  inhibition at 10 µM: 75.2%
Panel of 203 kinases [3]
  inhibition at 10 µM: 0%
Panel of 203 kinases [4]
  inhibition at 10 µM: 0%
Panel of 203 kinases [5]
  inhibition at 10 µM: 94.8%
Panel of 203 kinases [6]
  inhibition at 10 µM: 97.4%
Panel of 203 kinases [7]
  inhibition at 10 µM: 0%

## Cc1ccc(O)cc1Nc1ccnc(Nc2cccc(C(N)=O)c2)n1 [Compound 3]
Panel of 203 kinases [1]
  inhibition at 10 µM: 94.4%
Panel of 203 kinases [2]
  inhibition at 10 µM: 0%
Panel of 203 kinases [3]
  inhibition at 10 µM: 0%
Panel of 203 kinases [4]
  inhibition at 10 µM: 0%
Panel of 203 kinases [5]
  inhibition at 10 µM: 0%
Panel of 203 kinases [6]
  inhibition at 10 µM: 0%
Panel of 203 kinases [7]
  inhibition at 10 µM: 0%

## Cc1ccc(O)cc1N(C)c1ccnc(Nc2cccc(S(N)(=O)=O)c2)n1 [Compound 4]
Panel of 203 kinases [1]
  inhibition at 10 µM: 99.2%
Panel of 203 kinases [2]
  inhibition at 10 µM: 0%
Panel of 203 kinases [3]
  inhibition at 10 µM: 0%
Panel of 203 kinases [4]
  inhibition at 10 µM: 0%
Panel of 203 kinases [5]
  inhibition at 10 µM: 70.5%
Panel of 203 kinases [6]
  inhibition at 10 µM: 0%
Panel of 203 kinases [7]
  inhibition at 10 µM: 0%

## Fc1cccc(COc2ccc(Nc3ncnc4c3CN(CCN3CCOCC3)CC4)cc2Cl)c1 [Compound 6]
Panel of 203 kinases [1]
  inhibition at 10 µM: 0%
Panel of 203 kinases [2]
  inhibition at 10 µM: 0%
Panel of 203 kinases [3]
  inhibition at 10 µM: 0%
Panel of 203 kinases [4]
  inhibition at 10 µM: 0%
Panel of 203 kinases [5]
  inhibition at 10 µM: 0%
Panel of 203 kinases [6]
  inhibition at 10 µM: 0%
Panel of 203 kinases [7]
  inhibition at 10 µM: 0%

## COc1cc(Nc2nccc(-c3sc(N)nc3-c3cccc(NC(=O)c4c(F)cccc4F)c3)n2)cc(OC)c1OC [Compound 7]
Panel of 203 kinases [1]
  inhibition at 10 µM: 99.9%
Panel of 203 kinases [2]
  inhibition at 10 µM: 0%
Panel of 203 kinases [3]
  inhibition at 10 µM: 0%
Panel of 203 kinases [4]
  inhibition at 10 µM: 97.4%
Panel of 203 kinases [5]
  inhibition at 10 µM: 0%
Panel of 203 kinases [6]
  inhibition at 10 µM: 0%
Panel of 203 kinases [7]
  inhibition at 10 µM: 0%

## C[C@@H](Oc1cc(-c2cnc3ccccn23)sc1C(N)=O)c1ccccc1Cl [Compound 8]
Panel of 203 kinases [1]
  inhibition at 10 µM: 81%
Panel of 203 kinases [2]
  inhibition at 10 µM: 0%
Panel of 203 kinases [3]
  inhibition at 10 µM: 0%
Panel of 203 kinases [4]
  inhibition at 10 µM: 0%
Panel of 203 kinases [5]
  inhibition at 10 µM: 0%
Panel of 203 kinases [6]
  inhibition at 10 µM: 0%
Panel of 203 kinases [7]
  inhibition at 10 µM: 89.3%

## c1ccc(COc2cccc(-c3ccnc4[nH]ccc34)c2)cc1 [Compound 9]
Panel of 203 kinases [1]
  inhibition at 10 µM: 0%
Panel of 203 kinases [2]
  inhibition at 10 µM: 0%
Panel of 203 kinases [3]
  inhibition at 10 µM: 0%
Panel of 203 kinases [4]
  inhibition at 10 µM: 0%
Panel of 203 kinases [5]
  inhibition at 10 µM: 0%
Panel of 203 kinases [6]
  inhibition at 10 µM: 0%
Panel of 203 kinases [7]
  inhibition at 10 µM: 0%

## Clc1ccc(Nc2ncc(-c3ccccc3)s2)cc1 [Compound 10]
Panel of 203 kinases [1]
  inhibition at 10 µM: 0%
Panel of 203 kinases [2]
  inhibition at 10 µM: 0%
Panel of 203 kinases [3]
  inhibition at 10 µM: 0%
Panel of 203 kinases [4]
  inhibition at 10 µM: 0%
Panel of 203 kinases [5]
  inhibition at 10 µM: 0%
Panel of 203 kinases [6]
  inhibition at 10 µM: 0%
Panel of 203 kinases [7]
  inhibition at 10 µM: 0%

## Nc1ncc2c(-c3ccncc3)c[nH]c2n1 [Compound 11]
Panel of 203 kinases [1]
  inhibition at 10 µM: 86.8%
Panel of 203 kinases [2]
  inhibition at 10 µM: 0%
Panel of 203 kinases [3]
  inhibition at 10 µM: 0%
Panel of 203 kinases [4]
  inhibition at 10 µM: 0%
Panel of 203 kinases [5]
  inhibition at 10 µM: 84.9%
Panel of 203 kinases [6]
  inhibition at 10 µM: 0%
Panel of 203 kinases [7]
  inhibition at 10 µM: 0%
